Data published in patent US6365759B1, “Intermediate compounds for preparing macrocylcic analogs” (Eisai Co., Ltd., priority 1998, dated 2002).
Read-outs that look alike come from different tables or passages of the source.

Columns and labels:
[1] = system: DLD-1 human colon cancer cells; test: in vitro cell growth inhibition assay using DLD-1 cells; assay type: cell-based
[2] = system: U937 human histiocytic lymphoma cells; test: U937 Mitotic Block Reversibility Assay; assay type: cell-based; details: for reversibility of induced mitotic blocks: blocks sustained 10 hour after drug washout
[3] = in vitro cell growth inhibition, DLD-1 human colon cancer cells, read-out: DLD-1 mean IC50
[4] = Homo sapiens, DLD-1, read-out: DLD-1 mean IC50

Row | Compound | Reversibility Ratio [2] | IC50 [1, 4] | Complete Mitotic Block 0 hour [2] | Complete Mitotic Block 10 hour [2] | IC50 ([1]; read-out: DLD-1 mean IC50) | also measured
1 | C=C1CC2CCC34CC5OC6C(OC7CCC(CC(=O)C[C@H]8C(CC9OC(CCC1O2)CC(C)C9=C)OC(CC(O)CO)C8OC)OC7C6O3)C5O4 (some centres unmarked) [Compound B1793] | 14.7 | – | – | – | – | IC50 [1, 3]: 0.93 nM; Complete Mitotic Block 10 hour ([2]; after washout, 12 h pretreatment, U937 cells): 44 nM; Complete Mitotic Block 0 hour ([2]; before washout, 12 h pretreatment, U937 cells): 3 nM
2 | C=C1CC2CCC34CC5OC6C(OC7CCC(CC(=O)CC8C(CC9OC(CCC1O2)CC(C)C9=C)OC(CC(O)CO)C8OC)OC7C6O3)C5O4 (centres unmarked) [Compound B1794] | – | – | – | – | – | IC50 [1, 3]: 12.2 nM
3 | C=C1CC2CCC34CC5OC6C(OC7CCC(CC(=O)CC8C(CC9OC(CCC1O2)CC(C)C9=C)OC(CC(O)CN=[N+]=[N-])C8OC)OC7C6O3)C5O4 (centres unmarked) [Compound B1922] | 10.0 | 0.53 nM | 3 nM | 30 nM | – | –
4 | C=C1CC2CCC34CC5OC6C(OC7CCC(CC(=O)CC8C(CC9OC(CCC1O2)CC(C)C9=C)OC(CC(O)CNC(=O)C(=O)c1ccccc1)C8OC)OC7C6O3)C5O4 (centres unmarked) [Compound B1930] | – | – | – | – | 0.87 nM | –
5 | C=C1CC2CCC34CC5OC6C(OC7CCC(CC(=O)CC8C(CC9OC(CCC1O2)CC(C)C9=C)OC(CC(=O)CO)C8OC)OC7C6O3)C5O4 (centres unmarked) [Compound B1934] | 10.0 | 1.05 nM | 3 nM | 30 nM | – | –
6 | C=C1CC2CCC34CC5OC6C(OC7CCC(CC(=O)CC8C(CC9OC(CCC1O2)CC(C)C9=C)OC(CC(O)CNC(=O)Cc1cccnc1)C8OC)OC7C6O3)C5O4 (centres unmarked) [Compound B1940] | – | – | – | – | 5.43 nM | –
7 | C=C1CC2CCC34CC5OC6C(OC7CCC(CC(=O)CC8C(CC9OC(CCC1O2)CC(C)C9=C)OC(CC(O)CNC(=O)Cc1ccccc1)C8OC)OC7C6O3)C5O4 (centres unmarked) [Compound B1973] | – | – | – | – | 1.15 nM | –
8 | C=C1CC2CCC34CC5OC6C(OC7CCC(CC(=O)CC8C(CC9OC(CCC1O2)CC(C)C9=C)OC(CC(O)COC(=O)Nc1ccccc1)C8OC)OC7C6O3)C5O4 (centres unmarked) [Compound B1984] | – | – | – | – | 1.01 nM | –
9 | C=C1CC2CCC34CC5OC6C(OC7CCC(CC(=O)CC8C(CC9OC(CCC1O2)CC(C)C9=C)OC(CC(O)CNC(=O)C(=O)c1c[nH]c2ccccc12)C8OC)OC7C6O3)C5O4 (centres unmarked) [Compound B1987] | – | – | – | – | 1.82 nM | –
10 | C=C1CC2CCC34CC5OC6C(OC7CCC(CC(=O)CC8C(CC9OC(CCC1O2)CC(C)C9=C)OC(CC(=O)CNC(=O)C(=O)c1ccccc1)C8OC)OC7C6O3)C5O4 (centres unmarked) [Compound B1988] | – | 2.67 nM | – | – | – | –
11 | C=C1CC2CCC34CC5OC6C(OC7CCC(CC(=O)CC8C(CC9OC(CCC1O2)CC(C)C9=C)OC(CC(O)COC(=O)Nc1ccc(Cl)cc1)C8OC)OC7C6O3)C5O4 (centres unmarked) [Compound B1990] | – | – | – | – | 1.3 nM | –
12 | C=C1CC2CCC34CC5OC6C(OC7CCC(CC(=O)CC8C(CC9OC(CCC1O2)CC(C)C9=C)OC(CC(O)CNC(=O)c1ccc(Cl)cc1)C8OC)OC7C6O3)C5O4 (centres unmarked) [Compound B1991] | – | – | – | – | 0.69 nM | –
13 | C=C1CC2CCC34CC5OC6C(OC7CCC(CC(=O)CC8C(CC9OC(CCC1O2)CC(C)C9=C)OC(CC(O)COC(=O)Nc1ccc(OC)cc1)C8OC)OC7C6O3)C5O4 (centres unmarked) [Compound B1992] | – | – | – | – | 0.86 nM | –
14 | C=C1CC2CCC34CC5OC6C(OC7CCC(CC(=O)CC8C(CC9OC(CCC1O2)CC(C)C9=C)OC(CC(O)CNC(=O)C(=O)c1cc(OC)c(OC)c(OC)c1)C8OC)OC7C6O3)C5O4 (centres unmarked) [Compound B2003] | – | – | – | – | 1.21 nM | –
15 | C=C1CC2CCC34CC5OC6C(OC7CCC(CC(=O)CC8C(CC9OC(CCC1O2)CC(C)C9=C)OC(CC(O)CNC(=O)c1cc(OC)c(OC)c(OC)c1)C8OC)OC7C6O3)C5O4 (centres unmarked) [Compound B2004] | – | – | – | – | 0.63 nM | –
16 | C=C1CC2CCC34CC5OC6C(OC7CCC(CC(=O)CC8C(CC9OC(CCC1O2)CC(C)C9=C)OC(CC(O)COCc1ccc(F)cc1)C8OC)OC7C6O3)C5O4 (centres unmarked) [Compound B2014] | – | 0.87 nM | – | – | – | –
17 | C=C1CC2CCC34CC5OC6C(OC7CCC(CC(=O)CC8C(CC9OC(CCC1O2)CC(C)C9=C)OC(CC(CO)OCc1ccc(F)cc1)C8OC)OC7C6O3)C5O4 (centres unmarked) [Compound B2015] | – | 2.78 nM | – | – | – | –
18 | C=CC(F)(F)C(O)CC1OC2CC3OC(CCC4OC(CCC56CC7OC8C(OC9CCC(CC(=O)CC2C1OC)OC9C8O5)C7O6)CC4=C)CC(C)C3=C (centres unmarked) [Compound B2035] | – | 0.76 nM | – | – | – | –
19 | C=C1C[C@@H]2CCC34CC5OC6C(OC7CCC(CC(=O)CC8C(CC9OC(CCC1O2)CC(C)C9=C)OC(CCO)C8OC)OC7C6O3)C5O4 (some centres unmarked) [Compound B2037] | – | 0.66 nM | – | – | – | –

Row | Compound | Reversibility Ratio [2] | IC50 [1, 4] | Complete Mitotic Block 0 hour [2] | Complete Mitotic Block 10 hour [2] | IC50 ([1]; read-out: DLD-1 mean IC50) | also measured
20 | C=C1CC2CCC34CC5OC6C(OC7CCC(CC(=O)CC8C(CC9OC(CCC1O2)CC(C)C9=C)OC(CC(O)CC(O)CO)C8OC)OC7C6O3)C5O4 (centres unmarked) [Compound B2086] | – | 11.2 nM | – | – | – | –
21 | C=C1CC2CCC34CC5OC6C(OC7CCC(CC(=O)CC8C(CC9OC(CCC1O2)CC(C)C9=C)OC(C(O)CO)C8C)OC7C6O3)C5O4 (centres unmarked) [Compound B2090] | – | 0.52 nM | – | – | – | –
22 | C=C1CC2CCC34CC5OC6C(OC7CCC(CC(=O)CC8C(CC9OC(CCC1O2)CC(C)C9=C)OC(CC(O)CCO)C8OC)OC7C6O3)C5O4 (centres unmarked) [Compound B2091] | 10.0 | 1.36 nM | 3 nM | 30 nM | – | –
23 | C=C1CC2CCC34CC5OC6C(OC7CCC(CC(=O)CC8C(CC9OC(CCC1O2)CC(C)C9=C)OC(C(O)CN)C8C)OC7C6O3)C5O4 (centres unmarked) [Compound B2136] | 1.0 | 5.23 nM | 3 nM | 3 nM | – | –
24 | C=C1C[C@@H]2CCC34CC5OC6C(OC7CCC(CC(=O)CC8C(CC9OC(CCC1O2)CC(C)C9=C)OC(CC(O)COS(C)(=O)=O)C8OC)OC7C6O3)C5O4 (some centres unmarked) [Compound B2294] | – | 0.8 nM | – | – | – | –
25 | C=C1CC2CCC34CC5OC6C(OC7CCC(CC(=O)CC8C(CC9OC(CCC1O2)CC(C)C9=C)OC(CC(O)CN(C)C)C8OC)OC7C6O3)C5O4 (centres unmarked) [Compound B2320] | 10.0 | – | 1 nM | 10 nM | 1.2 nM | –
26 | C=C1CC2CCC34CC5OC6C(OC7CCC(CC(=O)CC8C(CC9OC(CCC1O2)CC(C)C9=C)OC(CC(O)CNC(C)C)C8OC)OC7C6O3)C5O4 (centres unmarked) [Compound B2330] | 1.0 | – | 7 nM | 7 nM | 4.4 nM | –
27 | C=C1C[C@@H]2CC[C@@]34C[C@H]5O[C@H]6[C@@H](O3)[C@H]3O[C@H](CC[C@@H]3O[C@@H]6[C@H]5O4)CC(=O)C[C@@H]3[C@@H](OC)[C@@H](C[C@H](O)CNC)O[C@H]3C[C@H]3O[C@@H](CC[C@@H]1O2)C[C@@H](C)C3=C [Compound B2336] | 1.0 | – | 10 nM | 10 nM | 3.33 nM | –
28 | C=C1CC2CCC34CC5OC6C(OC7CCC(CC(=O)CC8C(CC9OC(CCC1O2)CC(C)C9=C)OC(CC(O)CNC(C)(C)C)C8OC)OC7C6O3)C5O4 (centres unmarked) [Compound B2339] | 1.0 | – | 3 nM | 3 nM | 4.3 nM | –
29 | C=C1CC2CCC34CC5OC6C(OC7CCC(CC(=O)CC8C(CC9OC(CCC1O2)CC(C)C9=C)OC(CC(O)CNCCO)C8OC)OC7C6O3)C5O4 (centres unmarked) [Compound B2417] | 1.0 | – | 10 nM | 10 nM | 12.7 nM | –
30 | C=C1CC2CCC34CC5OC6C(OC7CCC(CC(=O)CC8C(CC9OC(CCC1O2)CC(C)C9=C)OC(CC(O)CN1CCNCC1)C8OC)OC7C6O3)C5O4 (centres unmarked) [Compound B2418] | 1.0 | – | 10 nM | 10 nM | 3.63 nM | –
31 | C=C1CC2CCC34CC5OC6C(OC7CCC(CC(=O)CC8C(CC9OC(CCC1O2)CC(C)C9=C)OC(CC(O)CN(CCO)CCO)C8OC)OC7C6O3)C5O4 (centres unmarked) [Compound B2489] | 1.0 | – | 10 nM | 10 nM | 14.7 nM | –
32 | C=C1CC2CCC34CC5OC6C(OC7CCC(CC(=O)CC8C(CC9OC(CCC1O2)CC(C)C9=C)OC(CC(O)CNC(CO)CO)C8OC)OC7C6O3)C5O4 (centres unmarked) [Compound B2490] | 1.0 | – | 100 nM | 100 nM | 35.7 nM | –
33 | C=C1CC2CCC34CC5OC6C(OC7CCC(CC(=O)CC8C(CC9OC(CCC1O2)CC(C)C9=C)OC(CC(O)CNCc1ccccc1)C8OC)OC7C6O3)C5O4 (centres unmarked) [Compound B2491] | 6.7 | – | 2 nM | 10 nM | 0.92 nM | –
34 | C=C1CC2CCC34CC5OC6C(OC7CCC(CC(=O)CC8C(CC9OC(CCC1O2)CC(C)C9=C)OC(CC(O)CN1CCCCC1)C8OC)OC7C6O3)C5O4 (centres unmarked) [ER803834] | 10.0 | – | 1 nM | 10 nM | 0.47 nM | –
35 | C=C1CC2CCC34CC5OC6C(OC7CCC(CC(=O)CC8C(CC9OC(CCC1O2)CC(C)C9=C)OC(CC(O)CN1CCCC1)C8OC)OC7C6O3)C5O4 (centres unmarked) [ER803835] | 1.0 | – | 10 nM | 10 nM | 15.3 nM | –
36 | CC[C@]1(O)C[C@@H]2CN(CCc3c([nH]c4ccccc34)[C@@](C(=O)OC)(c3cc4c(cc3OC)N(C)[C@H]3[C@@](O)(C(=O)OC)[C@H](OC(C)=O)[C@]5(CC)C=CCN6CC[C@]43[C@@H]65)C2)C1 [Vinblastine, reference compound] | – | – | – | – | – | Reversibility ratio ([2]; Table 2): 60; Drug concentration required for complete mitotic block, 0 hour (before washout) ([2]; Table 2, U937 cells): 10 nM; Drug concentration required for complete mitotic block, 10 hour (after washout) ([2]; Table 2, U937 cells): 600 nM; reversibility of induced mitotic blocks [2]: highly reversible
37 | CC[C@]1(O)C[C@H]2CN(CCc3c([nH]c4ccccc34)[C@@](C(=O)OC)(c3cc4c(cc3OC)N(C=O)[C@H]3[C@@](O)(C(=O)OC)[C@H](OC(C)=O)[C@]5(CC)C=CCN6CC[C@]43[C@@H]65)C2)C1 [Vincristine, reference compound] | – | – | – | – | – | Reversibility ratio ([2]; Table 2): 1; Drug concentration required for complete mitotic block, 0 hour (before washout) ([2]; Table 2, U937 cells): 10 nM; Drug concentration required for complete mitotic block, 10 hour (after washout) ([2]; Table 2, U937 cells): 10 nM; Interpretation ([2]; Table 2, reversibility of mitotic block): Irreversible; reversibility of induced mitotic blocks [2]: irreversible
